Results as given in patent publication US8158632B2, “Pyrazolo[1,5-a]pyrimidines, processes, uses and compositions” (priority 2006, dated 2012).

Experiments:
[1] = Cell toxicity (MTS cell viability) in CHO-K1 cells at 24 h; format: cell-based; conditions: Chinese hamster
Procedure: (§1) d) In Vitro Determination of Cell Toxicity in HepG2, CHO-K1 and HeLa Cells at 24 h
(§2) HepG2 (human hepatocellular carcinoma cells) and CHO-K1 (Chinese hamster ovary cells) were both obtained from the American Type Culture Collection (ATCC). HepG2 were cultured in Minimum Essential Medium (MEM) containing Earl's salts solution with 1.87 mM Glutamax® and supplemented with 1 mM sodium pyruvate, 0.1 mM non-essential amino acids, 100000 U/L penicillin, 100000 μg/L streptomycin and 10% Foetal Bovine Serum. CHO-K1 were maintained in Ham's F-12 medium containing 1 mM Glutamax® and supplemented with 1 mM L-glutamine, 100000 U/L penicillin, 100000 μg/L streptomycin and 10% Foetal Bovine Serum. Promega CellTiter 96® Aqueous One Solution Cell Viability Assay, contains the tetrazolium salt (MTS) that dehydrogenase enzymes found in metabolically active cells turn into the aqueous soluble formazan product. The quantity of formazan product is proportional to the number of living cells in culture.
Compounds were dissolved in DMSO to achieve an initial concentration of 100 mM. Serial dilutions were made from this stock solution in DMSO to achieve a range of concentrations from 50 to 0.25 mM. […] Relative cell viability was determined spectro-photometrically at 490 nm following the addition of the MTS dye and further one-hour incubation. […]

HepG2 cells = experiment: Cell toxicity (MTS cell viability) in HepG2 cells at 24 h; format: cell-based, human; conditions: HepG2 at 100 μM
Procedure: as §1, §2
(§3) Compounds were dissolved in DMSO to achieve an initial concentration of 100 mM. Serial dilutions were made from this stock solution in DMSO to achieve a range of concentrations from 50 to 0.25 mM. The stock solution and serial dilutions were then diluted 1:100 with the respective cell culture medium. In the case of CHO-K1 cells, concentrations at 1000, 500, 250, 100, 50, 25, 10, 5 and 2.5 μM were prepared to assess IC50, whereas in the case of HepG2 cells, final concentrations at 1000, 100, 10 and 1 μM final were assayed in order to calculate the percentage of cell. The final DMSO concentration in all wells was 1% v/v. Cell lines were both incubated with test compounds for 24 hours. Relative cell viability was determined spectro-photometrically at 490 nm following the addition of the MTS dye and further one-hour incubation. Tamoxifen was used as the positive control.

HeLa cells = experiment: Cell toxicity in HeLa cells at 24 h; format: cell-based; conditions: HeLa at 100 μM
Procedure: as §1, §3
An analogous protocol was used to determine the cell toxicity in HeLa cells at 24 h.

mice = experiment: In vivo predictive sedation-hypnosis test (traveled distance); conditions: male CD1 mice; for % inhib motor activity: 98 μmol/kg ip, traveled distance over 30 min (first 5 min discarded) vs control
Procedure: b) In Vivo Determination of Predictive Sedative-Hypnotic Action
The in vivo effects of these compounds were assessed by a predictive sedation-hypnosis test in mice (D. J. Sanger et al., Eur. J. Pharmacol., 313, 35-42, 1996; and G. Griebel et al., Psychopharmacology, 146, 205-213, 1999).
Groups of 5-8 male CD1 mice, weighing 22-26 g at the time of test, were used. The test compounds were administered in single equimolecular intraperitoneal doses, suspended in 0.25% agar with one drop of Tween 80 in a volume of 10 mL/kg. Two doses were tested in each route. Control animals received the vehicle alone. Using a Smart System (Panlab, S. L., Spain) the traveled distance in cm is recorded for each mouse at 5-min intervals during a period of 30 minutes after intraperitoneal (ip) dosing. The inhibition percentage of traveled distance of treated animals versus control animals (the first 5 min were discarded) and ED50 values were calculated.

[2] = system: α1 subunit of the GABAA receptor; experiment: Ligand-binding assay, competitive with radiolabeled flumazenil, cerebellum membranes; conditions: 1 nM radiolabeled flumazenil, rat cerebellum membranes; for % inhib 10^−5M: 10^−5M compound; for % inhib 10^−7M: 10^−7M compound
Procedure: (§4) a) Ligand-Binding Assays. Determination of the Affinity of Test Compounds for α1- and α2-GABAA Receptor
(§5) Male Sprague-Dawley rats weighing 200-250 g at the time of experiment were used. After decapitation of the animal, the cerebellum (tissue that mostly contains α1-GABAA receptor) and spinal cord (tissue that mostly contains α2-GABAA receptor) were removed. The membranes were prepared according to the method by J. Lameh et al. (Prog. Neuro-Psychopharmacol. Biol. Psychiatry, 24, 979-991, 2000) and H. Noguchi et al. (Eur. J. Pharm., 434, 21-28, 2002) with slight modifications. Once the tissues weighed, they were suspended in 50 mM Tris.HCl (pH 7.4), 1:40 (v/v), or sucrose 0.32 M in the case of spinal cord, homogenized and then centrifuged at 20000 g for 10 min at 7° C. The resulting pellet was resuspended under the same conditions and centrifuged again. The pellet was finally resuspended on a minimum volume and kept at −80° C. overnight. On the next day, the process was repeated until the final pellet was resuspended at a ratio of 1:10 (v/v) in the case of cerebellum and at a ratio of 1:5 (v/v) in the case of spinal cord.
Affinity was determined by competitive tests using radiolabeled flumazenil as ligand. The tests were performed according to the methods described by S. Arbilla et al. (Eur. J. Pharmacol., 130, 257-263, 1986); and Y. Wu et al. (Eur. J. Pharmacol., 278,125-132, 1995) using 96-well microtiter plates. The membranes containing the study receptors, flumazenil (radiolabeling at a final concentration of 1 nM) and ascending concentrations of test compounds (in a total volume of 230 μL in 50 mM [ph 7.4] Tris.HCl buffer) were incubated. Simultaneously, the membranes were only incubated with the radiolabeled flumazenil (total binding, 100%) and in the presence of an elevated concentration of unradiolabeled flumazenil (non-specific binding, % estimation of radiolabeled ligand). The reactions started on adding the radiolabeled ligand followed by incubation for 60 minutes at 4° C. At the end of the incubation period, 200 μL of reaction were transferred to a multiscreen plate (Millipore) and filtered using a vacuum manifold and then washed three times with cold test buffer. The multiscreen plates were equipped with a GF/B filter that retained the membranes containing the receptors and the radiolabeled ligand which had been bound to the receptors. After washing, the plates were left till dry. Once dried, scintillation liquid was added and left under stirring overnight. The next day the plates were counted using a Perkin-Elmer Microbeta scintillation counter.
(§6) For analysis of the results the percentage of specific binding for every concentration of test compound was calculated as follows: % specific binding=(X−N/T−N)×100 where, • X: amount of bound ligand for every concentration of compound. • T: total binding, maximum amount bound to the radiolabeled ligand. • N: non-specific binding, amount of radiolabeled ligand bound in a non-specific way irrespective of the receptor used.
(§7) Every concentration of compounds was tested in triplicate and their mean values were used to determine the experimental values of % specific binding versus the concentration of compound. Affinity data are expressed as % inhibition at 10^−5M and 10^−7M concentrations for α1 subunit and at 10^-5M for α2 subunit.

[3] = system: α2 subunit of the GABAA receptor; experiment: Ligand-binding assay, competitive with radiolabeled flumazenil, spinal cord membranes; conditions: 10^−5M compound; 1 nM radiolabeled flumazenil; rat spinal cord membranes
Procedure: as §4, §5
Affinity was determined by competitive tests using radiolabeled flumazenil as ligand. The tests were performed according to the methods described by S. Arbilla et al. (Eur. J. Pharmacol., 130, 257-263, 1986); and Y. Wu et al. (Eur. J. Pharmacol., 278,125-132, 1995) using 96-well microtiter plates. The membranes containing the study receptors, flumazenil (radiolabeling at a final concentration of 1 nM) and ascending concentrations of test compounds (in a total volume of 230 μL in 50 mM [ph 7.4] Tris.HCl buffer) were incubated. Simultaneously, the membranes were only incubated with the radiolabeled flumazenil (total binding, 100%) and in the presence of an elevated concentration of unradiolabeled flumazenil (non-specific binding, % estimation of radiolabeled ligand). […] The next day the plates were counted using a Perkin-Elmer Microbeta scintillation counter.
as §6, §7

[4] = Metabolic stability in human hepatocytes cytosolic fraction; format: in vitro ADME; conditions: 5 μM compound, 1.0 mg/mL pooled human cytosol, 37° C.
Procedure: c) In Vitro Determination of Metabolic Stability in Human Hepatocytes Cytosolic Fraction
Compounds were dissolved in dimethyl sulfoxide to achieve an initial concentration of 10 mM. This stock solution was then diluted with solvent and buffer to obtain final assay concentration of 5 μM. Compounds were tested at a single concentration of 5 μM in duplicate incubating with 1.0 mg/mL of pooled human cytosol (obtained from Xenotech plc) at 37° C. Metabolism was assessed in the presence or absence of cofactors and measured as loss of parent compound by LC/MS analysis at 0, 60 and 120-minutes time points. Percentages of remaining parent compounds were then calculated.

Compound	IC50 at 24 h [1]	% of cell viability (HepG2 cells)	% of cell viability (HepG2 cells; listed as indiplon)	% of cell viability (HeLa cells)	% inhib motor activity (mice)	% inhib 10^−5M [2]	% inhib 10^−7M [2]	% inhib 10^−5M [3]	% of Parent ([4]; 60 min)	% of Parent ([4]; 120 min)	ED50 (mice; Mus musculus, ip, read-out: ED50 in inducing sedation)	% of cell viability (HepG2 cells; listed as example 11)
CC(=O)N(C)c1cccc(-c2ccnc3c(C(=O)c4cccs4)cnn23)c1 [Example 1 of US 6399621 (indiplon), N-{3-[3-(thiophene-2-carbonyl)-pyrazolo[1,5-a]pyrimidin-7-yl]-phenyl}-N-methyl-acetamide, reference compound]	108 µM	70%	70%	67.9%								
CN(c1cc(-c2ccnc3c([N+](=O)[O-])cnn23)ccc1F)S(C)(=O)=O [Preparative example 5, N-{2-fluoro-5-[3-nitro-pyrazolo[1,5-a]pyrimidin-7-yl]-phenyl}-N-methyl-methanesulfonamide]					89.0%	98.2%	42.3%	94.5%				
CN(c1cc(-c2ccnc3c(C#N)cnn23)ccc1F)S(C)(=O)=O [Preparative example 6, N-{2-fluoro-5-[3-cyano-pyrazolo[1,5-a]pyrimidin-7-yl]-phenyl}-N-methyl-methanesulfonamide]					76.3%	98.1%	36.4%	87.5%	86%	81%		
Cc1nn2c(-c3ccc(F)c(N(C)S(C)(=O)=O)c3)ccnc2c1C#N [Preparative example 11, N-{2-fluoro-5-[3-cyano-2-methyl-pyrazolo[1,5-a]pyrimidin-7-yl]-phenyl}-N-methyl-methanesulfonamide]	186 µM	84.5%		83.9%	83.8%	97.7%	41.8%	95.0%	88%	82%	16.9 µmol/kg	84.5%
CC(=O)N(C)c1cc(-c2ccnc3c(C(=O)c4cccs4)cnn23)ccc1C [Preparative example 13, N-{2-methyl-5-[3-(thiophene-2-carbonyl)-pyrazolo[1,5-a]pyrimidin-7-yl]-phenyl}-N-methyl-acetamide]					95.6%	98.7%	39.8%					
COc1ccc(-c2ccnc3c(C(=O)c4cccs4)cnn23)cc1N(C)C(C)=O [Preparative example 14, N-{2-methoxy-5-[3-(thiophene-2-carbonyl)-pyrazolo[1,5-a]pyrimidin-7-yl]-phenyl}-N-methyl-acetamide]					89.6%	97.3%	31.9%					
CCN(C(C)=O)c1cccc(-c2ccnc3c(C#N)cnn23)c1 [Zaleplon, reference compound]					84.9%			77.4%				
